In patent US10450305B2, “LKB1-AMPK activators for therapeutic use in polycystic kidney disease” (The University of Kansas, priority 2014, dated 2019):

Legend:
[1] = in vivo; cited from earlier work
AMPK [2] = assay: Western blot of phosphorylated AMPK (P-AMPK/AMPK) in ADPKD cells; format: cell-based, human; settings: for phosphorylation of AMPK: 100 nm, 24 h; for rank order of the effect on AMPK phosphorylation: western blot
Protocol: (§1) We designed and synthesized a small molecule LKB1 activator BIT-11 by incorporating an oxadiazole moiety into a unique 3-substituted 2H-chromene derivative. The effects of BIT-11 on phosphorylated AMPK (P-AMPK) and S6 kinase (P-S6K), a downstream target of mTOR, were determined by western blot analysis. To test the drug's effect on Cl^− transport, ADPKD monolayers were incubated in the absence and presence of BIT-11 and then treated with forskolin, a cAMP agonist. Changes in Cl^− transport were measured by short circuit current. For in vitro cyst growth assays, ADPKD cells were seeded within a collagen matrix and treated with EGF and forskolin±BIT-11, and total surface area of cysts per well was calculated from individual cyst diameters. […] The numbers above blots indicate P-AMPK/AMPK normalized to control. […] ADPKD cells were treated with BIT129, BIT130, and BIT131 (e.g., 100 nm) for 24 h, then cell lysates were prepared. […] The rank order of the effect of the new drugs on AMPK phosphorylation was BIT-131>BIT-130>BIT-129.

S6 kinase (S6K) = assay: Western blot of phosphorylated S6 kinase (P-S6K/S6K), downstream target of mTOR, in ADPKD cells; format: cell-based, human; settings: 24 hours, control media 0.05% fetal bovine serum
Protocol: as §1

human ADPKD cells [3] = assay: Proliferation of human ADPKD cells (automated cell count); format: cell-based; settings: 10 to 1000 nM, 48 h, 0.05% fetal bovine serum
Text: Cells were counted using an automated cell counter.

human ADPKD cells [4] = assay: In vitro cyst growth of ADPKD cells within a collagen matrix; format: cell-based; settings: 5 μM forskolin and 5 ng/ml EGF, cysts diameter ≥50 μm
Protocol: (§2) We designed and synthesized a small molecule LKB1 activator BIT-11 by incorporating an oxadiazole moiety into a unique 3-substituted 2H-chromene derivative. The effects of BIT-11 on phosphorylated AMPK (P-AMPK) and S6 kinase (P-S6K), a downstream target of mTOR, were determined by western blot analysis. To test the drug's effect on Cl^− transport, ADPKD monolayers were incubated in the absence and presence of BIT-11 and then treated with forskolin, a cAMP agonist. Changes in Cl^− transport were measured by short circuit current. For in vitro cyst growth assays, ADPKD cells were seeded within a collagen matrix and treated with EGF and forskolin±BIT-11, and total surface area of cysts per well was calculated from individual cyst diameters.
Cells were seeded in PureCol Type I collagen and stimulated to form cysts with 5 μM forskolin (FSK) and 5 ng/ml epidermal growth factor (EGF) for 3 days. […] FIG. 4A includes representative images of individual wells.

ADPKD cell monolayers [5] = assay: cAMP-induced Cl- secretion (short circuit current) across ADPKD cell monolayers; format: cell-based, human; settings: 10 μM for 24 hours, FSK 10 μM, n=10 pairs of monolayers
Protocol: as §2
FIG. 5A-5B show the effect of BIT-11 on cAMP-induced Cl^− secretion by ADPKD cell monolayers. ADPKD cells were grown as polarized monolayers on permeable Snapwell supports. […] ADPKD monolayers were mounted in Ussing chambers and treated with 10 μM benzamil to block the Na^+ current prior to the experiment. FSK (10 μM), a potent cAMP agonist, was added to maximally stimulate anion secretion.

Pkd1 mutant kidneys = assay: Ex vivo cyst formation in Pkd1-/- embryonic kidneys in metanephric organ culture; set-up: species or system mouse; settings: 10 μM, 100 μM 8-Br-cAMP, E15.5 kidneys, 4 days in culture
Protocol: FIG. 6 includes images that show the effect of BIT-11 on cyst-like tubule expansions in Pkd1 mutant kidneys. Kidneys were harvested from Pkd1 mutant (Pkd1^−/−) mice at embryonic day 15.5 (E15.5) and placed on permeable cell culture inserts. The kidneys were bathed in media containing 100 μM 8-Bromo-adenosine 3′,5′-cyclic monophosphate (cAMP) to stimulate mural epithelial cell proliferation and Cl^−-dependent fluid secretion, key factors in cyst formation. Images of kidneys were captured using a digital camera connected to a dissecting microscope and cystic area was monitored for 4 days. cAMP induced the formation of cyst-like dilations in Pkd1^−/− kidneys that progressively enlarged over 4 days in culture.

AMPK [6] = assay: P-AMPK levels in kidneys of wild type mice after i.p. dosing; format: in vivo, mouse; settings: wild type mice, 5, 10 or 25 mg/kg i.p. once per day for 4 days, two hours after last dose, compared to vehicle
Protocol: (§3) Normal mice were given BIT-11 at 5, 10 or 25 mg/kg body weight by daily intraperitoneal injection for 4 days. BIT-11 was delivered at 20% DMSO and 80% corn oil. Two hours after the last injection, the mice were sacrificed and the kidneys were snap-frozen and stored at −80 degree C., until tissue lysates were prepared. Tissues were homogenized in a lysis buffer containing detergent and protease and phosphatase inhibitors. Proteins were resolved by SDS PAGE and detected by immunoblot using P-AMPK and AMPK antibodies.
(§4) Another study included dosing wild type mice with BIT-11 once per day for 4 days and measured P-AMPK levels in the kidneys two hours after the last dose.

[7] = Tolerability in wild type mice; format: in vivo; settings: mice, 5, 10 and 25 mg/kg i.p., once per day for 4 days
Protocol: as §3, §4

ADPKD cell monolayers [8] = settings: found previously, selective CFTR inhibitor; cited from earlier work

CN(C)C(=N)N=C(N)N [Metformin]
eliminated by renal excretion [1]: ~80%

OB(O)c1ccc(-c2noc(C3=Cc4cc(Cl)cc(Cl)c4OC3c3ccccc3)n2)cc1 (stereo not drawn) [BIT-130]
phosphorylation of AMPK (AMPK [2]; ADPKD cells): can promote phosphorylation of AMPK | rank order of the effect on AMPK phosphorylation (AMPK [2]; ADPKD cells): BIT-131>BIT-130>BIT-129

CC1(C)OB(c2ccc(-c3noc(C4=Cc5cc(Cl)cc(Cl)c5OC4c4ccccc4)n3)cc2)OC1(C)C (stereo not drawn) [BIT-129]
phosphorylation of AMPK (AMPK [2]; ADPKD cells): can promote phosphorylation of AMPK | rank order of the effect on AMPK phosphorylation (AMPK [2]; ADPKD cells): BIT-131>BIT-130>BIT-129

O=C(O)c1ccc(-c2noc(C3=Cc4cc(Cl)cc(Cl)c4OC3c3ccccc3)n2)cc1 (stereo not drawn) [BIT-11]
effect on P-AMPK/AMPK (AMPK [2]; ADPKD cells, BIT-11 at 10 nM, 100 nM and 1,000 nM, 24 hours): can promote phosphorylation of AMPK increasingly with increasing amounts | biological activity compared with AMPK activator Metformin (AMPK [2]; comparison with Metformin): much better efficacy | effect on P-S6K/S6K (S6 kinase (S6K)): can inhibit phosphorylation of S6K increasingly at increasing amounts | effect on proliferation of human ADPKD cells (human ADPKD cells [3]): increasingly inhibit proliferation of ADPKD cells | total cyst surface area (in vitro cyst growth) (human ADPKD cells [4]): can inhibit cyst proliferation | cAMP-induced Cl- secretion (steady-state short circuit current) (ADPKD cell monolayers [5]): a decrease in cAMP-induced Cl^− secretion | cyst formation in Pkd1-/- kidneys (Pkd1 mutant kidneys): nearly eliminated cyst formation | P-AMPK levels in the kidneys (AMPK [6]): markedly increased P-AMPK levels in the kidneys | tolerability [7]: well tolerated

O=C(O)c1ccc(/C=C2\SC(=S)N(c3cccc(C(F)(F)F)c3)C2=O)cc1 [CFTRinh-172]
anion current across ADPKD monolayers (ADPKD cell monolayers [8]): completely blocked
